Test results taken from US9701681B2, “Fused ring heteroaryl compounds and their use as Trk inhibitors” (CMG Pharmaceutical Co., Ltd., priority 2014, dated 2017).

Legend:
TF-1 cells = assay: Cell proliferation assay (TF-1); details: 10 ng/ml human β-NGF, 72 hours exposure, read-out: IC50 (nM) Cell-based assay (TF-1)
Method: (§1) Doxorubicin was purchased from Sigma Aldrich (D1515). All compounds were diluted in DMSO (Sigma Aldrich, D2650). AlamarBlue® cell viability reagent was purchased from Thermo Scientific (88952). CellTiter 96® AQueous One Solution Cell proliferation assay was purchased from Promega. KM12-luc cells were obtained from JCRB (National Institute of Health Sciences, Tokyo, Japan). They were maintained in DMEM medium (GIB-11965-118) supplemented with 10% fetal bovine serum (Gibco, 16000-044) and MEM Non-Essential Amino Acids Solution (Thermo Scientific, 11140-050). TF-1 cells were obtained from ATCC. They were maintained in RPMI medium (GIB-A10491) supplemented with 10% fetal bovine serum (Gibco, 16000-044), GM-CSF (Thermo Scientific, 11140-050), and β-NGF (R&D systems). Trypsin/EDTA was purchased from Gibco (GIB-25300-054, 0.05%). 96-well plates were purchased from Corning Inc.
(§2) The proliferation assay was performed for Chemical Compounds 1-61 s in media supplemented with 10% FBS, using AlamarBlue® cell viability reagent or CellTiter 96® AQueous One Solution Cell proliferation assay kit. Cells were cultured in humidified 37° C. incubator with 5% CO2. To evaluate the antiproliferation activity of compounds, TF-1 cells were adjusted to GM-CSF free media (RPMI, 10% FBS, and 1% penicillin-streptomycin) for 16 hr and were seeded in 96-well plates at 30,000 cells/well with medium (RPMI, 10% FBS, 1% penicillin-streptomycin and 10 ng/ml human β-NGF). KM12-luc were seeded at 10,000 cells per well into 96-well plates. After overnight incubation, serial dilutions of compounds were added to triplicate wells, and cells were exposed for 72 hours. The final concentration of DMSO was adjusted to 0.5% in media. Quantitation of cell growth was assessed using two kinds of reagent. 20 ul of AlamarBlue® reagent in an amount equal to 10% of the culture volume was added to each well and were incubated in humidified 37° C. incubator with 5% CO2 for 2 hr. Otherwise, 20 ul of CellTiter 96® reagent was added to each well and were incubated in the same conditions as previously described. Data were plotted, and GI50 values were calculated using GraphPad software. Table 1 below includes the results of the assays.

TRK A, B & C kinase = target: T1, TRK A, B & C kinase; assay: TRK A, B & C kinase assay (ADP-Glo / HTRF KinEASE-TK); format: biochemical; details: ADP-Glo or HTRF KinEASE-TK kit, isoform not specified, read-out: IC50 (nM) Enzymatic assay
T1 construct: fused on or other part: Carna's Trk kinases are usually GST-tagged cytoplasmic domains
Method: ADP-Glo assay kit was purchased from Promega. poly (Glu, Tyr), Magnesium sulfate, Bovine serum albumin (BSA) and dimethylsulfoxide(DMSO) were purchased from Sigma-Aldrich. Tris-HCl buffer was purchased from BD Gentest. HTRF KinEASE-TK kit was purchased from cisbio. TRK A, B & C kinase was purchased from Carna bioscience.
Kinase assay was performed for Chemical Compounds 1-61 using two methods using luminescent ADP-Glo assay kit (Promega) and HTRF KinEASE-TK assay kit (cisbio). The luminescent ADP-Glo assay kit (Promega) measures ADP formed from a kinase reaction. ADP converted into ATP, which is then converted into light by Ultra-Glo luciferase. The HTRF KinEASE-TK assay kit (cisbio) measures tyrosine kinase activities using one substrate and a universal detection system.
ADP-Glo Assay Kit (Promega)
The protein kinase assay was performed for Chemical Compounds 1-61 at […] concentrations are 0.4 ng/ul of TrKA, 0.5 ng/ul of TrKB and 3 ng/ul of TrKC, respectively), 5 μL of 1 ug/ul stock solution of poly(glu, Tyr), 5 μL of compounds or assay buffer, 5 μL of ATP (125 μM stock solution).
The assay was started by incubating the reaction mixture in a 96-well plate at 30° C. for 1 hr. After the incubation, the assay was terminated by the addition of 25 […] Detection Reagent was added, and the 96-well plate was shaken and then incubated for additional 30 min at ambient temperature. The 96-well reaction plate was then read on an Enspire plate reader. The IC50 values were derived through a curve fitting using SigmaPlot.
HTRF KinEASE-TK Assay Kit (Cisbio)
The HTRF KinEASE-TK assay was performed for Chemical Compounds 1-61 in 384-well low volume microplate (Greiner). The HTRF KinEASE-TK assay format involves the two steps. The first step is kinase reaction step. This kinase reaction step was performed at RT (room temperature) in final volume of 10 ul according to the following assay reaction recipe: 10 ul of kinase mixture (Kinase (2 ul)+ATP (2 ul)+Substrate (2 ul)+Compound (4 ul)). Kinase final concentrations were 0.3 ng/ul of TRKA, 0.1 ng/ul of TRKB, 0.03 ng/ul of TRKC, respectively. ATP final concentrations were 14.7 uM (TRKA), 4.77 uM (TRKB), 25.6 uM (TRKC) respectively. TK-substrate final concentration was 0.3 ng/ul. The mixtures exposed to Dose response concentration (DRC) compound from 0 to 100 nM for 40 min. During the kinase reaction step, the kinase reaction was started by the addition of ATP. Kinase phosphorylates the substrate.
The second is detection step. 10 ul of detection reagents (5 ul Sa-XL 665 in EDTA+5 ul TK Antibody-Eu in EDTA) was added to kinase mixture. This step was performed at room temperature for 1 hr. The detection reagent detects phosphorylated substrates.
Finally 384-well reaction plate was then read on FlexStation 3 machine. The fluorescence was measured at 620 nm (Cryptate) and 665 nm (XL665). A ratio is calculated ([…]/620)×10^4 for each well. The IC50 value was derived through a curve fitting using GraphPad Prism. Table 1 below includes the results of the assays.

KM12-luc cells = assay: Cell proliferation assay (KM12); details: 72 hours exposure, read-out: IC50 (nM) Cell-based assay (KM12)
Method: as §1, §2

| Structure (SMILES) | IC50 (TF-1 cells) [nM] | IC50 (TRK A, B & C kinase) [nM] | IC50 (KM12-luc cells) [nM] |
| --- | --- | --- | --- |
| CCNC(=O)/C=C/c1cnn2ccc(N3CCCC3c3cncc(F)c3)nc12 (stereo not drawn) [Chemical Compound 38, (E)-N-ethyl-3-(5-(2-(5-fluoropyridin-3-yl)pyrrolidin-1-yl)pyrazolo[1,5-a]pyrimidin-3-yl)acrylamide] | < 1000 | < 10 | < 1000 |
| Fc1ccc(F)c(C2CCCN2c2ccn3ncc(-c4nnc(C5CC5)o4)c3n2)c1 (stereo not drawn) [Chemical Compound 7, 2-cyclopropyl-5-(5-(2-(2,5-difluorophenyl)pyrrolidin-1-yl)pyrazolo[1,5-a]pyrimidin-3-yl)-1,3,4-oxadiazole] | < 10 | < 10 | < 100 |
| CC(C)(C)c1nnc(-c2cnn3ccc(N4C[C@@H](F)C[C@@H]4c4cc(F)ccc4F)nc23)o1 [Chemical Compound 26, 2-tert-butyl-5-(5-((2R,4S)-2-(2,5-difluorophenyl)-4-fluoropyrrolidin-1-yl)pyrazolo[1,5-a]pyrimidin-3-yl)-1,3,4-oxadiazole] | < 10 | < 10 | < 10 |
| CC(C)NC(=O)/C=C/c1cnn2ccc(N3CCCC3c3cc(F)ccc3F)nc12 (stereo not drawn) [Chemical Compound 42, (E)-3-(5-(2-(2,5-difluorophenyl)-pyrrolidin-1-yl)pyrazolo[1,5-a]pyrimidin-3-yl)-N-isopropylacrylamide] | < 100 | < 10 | < 100 |
| O=C(/C=C/c1cnn2ccc(N3CCC[C@@H]3c3cc(F)ccc3F)nc12)N1CCOCC1 [Chemical Compound 49, (R,E)-3-(5-(2-(2,5-difluorophenyl)pyrrolidin-1-yl)pyrazolo[1,5-a]pyrimidin-3-yl)-1-morpholinoprop-2-en-1-one] | < 10 | < 10 | < 100 |
| O=C(/C=C/c1cnn2ccc(N3CCC[C@@H]3c3cc(F)ccc3F)nc12)NCCO [Chemical Compound 48, (R,E)-3-(5-(2-(2,5-difluorophenyl)pyrrolidin-1-yl)pyrazolo[1,5-a]pyrimidin-3-yl)-N-(2-hydroxyethyl)-acrylamide] | < 100 | < 10 | < 100 |
| CC(C)(C)c1nnc(-c2cnn3ccc(N4CCCC4c4cncc(F)c4)nc23)s1 (stereo not drawn) [Chemical Compound 15, 2-tert-butyl-5-(5-(2-(5-fluoropyridin-3-yl)pyrrolidin-1-yl)pyrazolo[1,5-a]pyrimidin-3-yl)-1,3,4-thiadiazole] | < 100 | < 10 | < 100 |
| Cc1noc(C)c1-c1cnn2ccc(N3CCCC3c3cc(F)ccc3F)nc12 (stereo not drawn) [Chemical Compound 31, 4-(5-(2-(2,5-difluorophenyl)pyrrolidin-1-yl)pyrazolo[1,5-a]pyrimidin-3-yl)-3,5-dimethylisoxazole] | < 1000 | < 100 | < 1000 |
| Cc1nnc(-c2cnn3ccc(N4CCCC4c4cc(F)ccc4F)nc23)s1 (stereo not drawn) [Chemical Compound 2, 2-(5-(2-(2,5-difluorophenyl)pyrrolidin-1-yl)pyrazolo[1,5-a]pyrimidin-3-yl)-5-methyl-1,3,4-thiadiazole] | < 10 | < 10 | < 100 |
| O=C(C#Cc1cnn2ccc(N3CCCC3c3cc(F)ccc3F)nc12)N1CCOCC1 (stereo not drawn) [Chemical Compound 61, 3-(5-(2-(2,5-difluorophenyl)pyrrolidin-1-yl)pyrazolo[1,5-a]pyrimidin-3-yl)-1-morpholinoprop-2-yn-1-one] | < 100 | < 10 | < 100 |
| CCNC(=O)/C=C/c1cnn2ccc(N3CCCC3c3cc(F)ccc3F)nc12 (stereo not drawn) [Chemical Compound 41, (E)-3-(5-(2-(2,5-difluorophenyl)pyrrolidin-1-yl)pyrazolo[1,5-a]pyrimidin-3-yl)-N-ethylacrylamide] | < 100 | < 10 | < 100 |
